Measured values taken from patent US12194201B2, “Silica nanoparticle doped conductive polymer” (University of Pittsburgh—Of the Commonwealth System of …, priority 2019, dated 2025).

Legend:
[1] = tested on: highly aggressive proliferating immortalized (HAPI) microglia cells; assay: Live/Dead staining of cells on polymer substrate; format: cell-based; conditions: 2 days, Triton-X 0.2% positive control on TCPS
Description: A cytotoxicity assessment was performed on the PEDOT/SNP composite. Both PEDOT^[51] and silica nanoparticles^[40] have each been successfully employed in in vivo applications. However, small changes to the surface chemistry of the silica nanoparticle warrant investigation into the potential for adverse biological interactions. The commonly employed polymer PEDOT/PSS itself has been previously characterized as non-toxic;^[52] and was used as an ideal reference for the toxicity testing of the PEDOT/SNP. The biocompatibility of the PEDOT/SNP surface was evaluated by directly culturing highly aggressive proliferating immortalized (HAPI) microglia cells on the substrate. After 2 days, XTT was used to measure to metabolic activity of the cells. […] A small degree of auto-fluorescence is detectable for both polymer coatings, resulting in a slight amount of red and green background. […] Given these findings, we can expect that the PEDOT/SNP surface is safe and non-toxic for acute experimentation, while chronic biocompatibility should still be evaluated. […]
XTT assay was performed as directed by the distributer. […] Cells were incubated for 3 hours and the absorbance of the supernatant was measured at 450 nm. […] Cells were incubated for 1 hour and imaged with fluorescence microscopy.

[2] = K3[Fe(CN)6] reduction (Prussian blue) antioxidant assay of released melatonin
Description: 1 mL of solution was removed and added to 0.8 mL of water, followed by the addition of 200 μL of FeCl3(0.01%, 6 μM), creating a deep blue dye. The absorbance of the resulting solution was measured at 700 nm.

[3] = tested on: 3T3 mouse fibroblast cells; assay: 3T3 viability (XTT) after incubation with released Dox; format: cell-based; conditions: 3-day incubation
Description: (§1) Electrochemical methods of drug release may alter the activity of a compound due to the applied potentials, and it is therefore important to verify that the loading and release process doesn't compromise the drug's bioactivity. […] For Dox, a potent chemotherapeutic, release was performed for 0 (passive diffusion for 24 hours), 20, or 200 cycles into serum free DMEM. A small amount of diffusion release was observed from Dox loaded electrodes, as measured by absorbance at […]. […] Released Dox was introduced to cultured 3T3 mouse fibroblast cells (FIG. 7B) and the toxicity was compared to freshly prepared Dox solution at the same concentration. After a 3-day incubation period, the viability of the 3T3 cells was evaluated with the XTT assay. […] Therefore, even though we detected a minute amount of Dox in the diffusion control, this quantity is below the toxic level.
XTT assay was performed as directed by the distributer. In brief, 2,3-Bis-(2-Methoxy-4-Nitro-5-Sulfophenyl)-2H-Tetrazolium-5-Carboxanilide (XTT, Invitrogen, 1 mg ml^−1) was added to culture media. 10 μl of phenazine methosulfate (PMS, 10 mM) was added to XTT/media solution (4 ml) just prior to the addition of XTT solution (50 uL) per well. Cells were incubated for 3 hours and the absorbance of the supernatant was measured at 450 nm. HAPI cells were imaged with a Live/Dead assay (Invitrogen). Supernatant solution was removed and replaced with 1/1000 dilutions for Propidium Iodide and Calcein AM in PBS. Cells were incubated for 1 hour and imaged with fluorescence microscopy.
Dox was loaded and released from PEDOT/SNP films as described above. 3T3 cells were cultured in 48 well plates for 2 days to reach semi-confluency, at which point the culture media was removed and replaced with serum-free media containing stock dox, released dox, or no dox. Cells were culture for 72 h, at which point the media was aspirated and the viability of the cells measured with XTT assay as described above.

[4] = Dox release from PEDOT/SNP film into serum free DMEM; format: physicochemical
Description: as §1
5 mg of mesoporous SNP were sonicated with 200 μl of drug solution for 20 minutes prior to the particles being collected by centrifuge and dried under vacuum.
5 mg of drug loaded particles were suspended in 3 ml of EDOT (0.01M) solution in water. Electropolymerization was carried out for 200 seconds on 2 mm diameter gold electrodes or 70 μm diameter Pt/Ir wires (A-M systems, 90/10 Pt/Ir). Electrodes were then washed with PBS on an orbital shaker for 2 hours then soaked overnight to remove any adsorbed drugs.

[5] = Electrically controlled dye loading and release from PEDOT/SNP films in PBS; format: physicochemical
Description: Drug loading and release from conducting polymers with electrical control offers a precise method for pharmacological delivery directly to the site of implantation on demand. Mesoporous SNP were employed for drug delivery due to their exceptionally high loading volume. Rhodamine and fluorescein were used as model drugs for quantifying drug release profile. Fluorescein has a negative charge while rhodamine-b is positively charged, and the combination of rhodamine and fluorescein allow for a better understanding of how oppositely charged compounds can be released from PEDOT/SNP films. The drug loading and release mechanism is depicted in FIG. 2. Nanoparticles were suspended in an aqueous solution of fluorescein, rhodamine, or a combination of both, and sonicated to encourage the entry of the dye into the pores. Loaded sulfonate nanoparticles are then collected from solution by centrifuge then resuspended in an aqueous solution of EDOT. PEDOT/SNP films are polymerized under constant current, producing a film of polymer gated silica nanoparticles. An immediate observation made was the ease of polymerization when the dye was loaded into SNPs prior to polymerization vs without SNPs, with electrode potential being substantially lower for electro-polymerization of drug loaded SNP (FIG. 11). After polymerization, electrodes coated with the dye-loaded composite were examined under a fluorescent microscope to observe the release in phosphate buffered saline (PBS) in real time (FIG. 12). A cyclic voltage sweep from 0.8V to −0.6V was used to trigger drug release from the coatings. We observed a halo of fluorescence surrounding the electrode upon stimulation, which dissipates within seconds of the end of stimulation.
We further quantified the amount of release over number of stimuli from PEDOT/SNP composite and compared the performance to a control group of PEDOT loaded with the dye directly without the mesoporous SNP. Control and SNP dopant groups were polymerized to the same charge density. […]

[6] = tested on: neural activity; assay: In vivo DNQX release from PEDOT/SNP coated carbon fiber electrode, GCaMP imaging; conditions: DNQX loaded PEDOT/SNP on carbon fiber electrode, reducing potential, GCaMP mouse
Description: Next, we aimed to modulate cellular activity by release of the glutamate AMPA/Kainate receptor antagonist 6,7-dinitroquinoxaiine-2,3-dione (DNQX). DNQX is a small, negatively charged compound that blocks glutamate transmission. We have previously observed that DNQX may be loaded and electrically released from PEDOT/CNT films in vivo and produce a transient (<6 second) inhibition of sensory evoked neural activity recorded in barrel cortex of rats.^[9] In this study, DNQX release from PEDOT/SNP was assessed using a GCaMP mouse model. The GCaMP fluorescence is tied directly to intracellular calcium activity, such that when neurons fire action potentials, the calcium influx cause GCaMP to produce a bright green fluorescence. […]
All animal work was performed under the guidelines of the University of Pittsburgh Institutional Animal Care and Use Committee (IACUC). […] First, a 2-minute baseline was recorded. […] Following 10 cycles of stimulation, a final 2-minute baseline recording was performed Calculations of fluorescence are made by first masking the electrode. A background fluorescence was determined by averaging all frames together, allowing for representation of small time windows as the % change vs the background intensity as shown below.
The inter-pulse fluorescence was determined by Δf during the reducing voltage, and comparing this to the Δf during the prior oxidative voltage (V>−0.2).

[7] = tested on: sensory evoked neural activity recorded in barrel cortex; conditions: released from PEDOT/CNT films, rat barrel cortex; cited from earlier work

## Triton-X
[1]
  Live dead staining of the cells on the substrate: no viable cells

## COc1ccc2[nH]cc(CCNC(C)=O)c2c1 [melatonin]
[2]; melatonin released from PEDOT/SNP film
  change in absorbance at 700 nm (antioxidant capacity): significant change in the absorbance
[2]; stock melatonin
  change in absorbance at 700 nm (antioxidant capacity): significant change in the absorbance

## COc1cccc2c1C(=O)c1c(O)c3c(c(O)c1C2=O)C[C@@](O)(C(=O)CO)C[C@@H]3O[C@H]1C[C@H](N)[C@H](O)[C@H](C)O1 [Dox, Doxorubicin]
[3]
  effect of released Dox vs concentration-matched stock Dox: no difference
[3]; diffusion control (0 cycles, passive diffusion 24 hours)
  3T3 viability vs standard culture media: No significant difference
[3]; released Dox from 20 stimulations
  3T3 viability vs control: significantly reduced the viability
[3]; released Dox from 200 stimulations
  3T3 viability vs control: significantly reduced the viability
[4]; 20 stimulations
  Dox released from PEDOT/SNP film: 1.44 μg cm^−2
[4]; 200 stimulations
  Dox released from PEDOT/SNP film: 7.4 μg cm^−2

## CCN(CC)c1ccc2c(-c3ccccc3C(=O)O)c3ccc(=[N+](CC)CC)cc-3oc2c1 [rhodamine, rhodamine-b]
[5]; PBS, cyclic voltage sweep 0.8V to −0.6V, dye-loaded PEDOT/SNP
  quantified fluorescent intensity during release vs after: significantly higher
[5]; over 9,000 (fluorescein) and 5,000 (rhodamine) stimulations, control PEDOT loaded with dye without SNP
  dye release relative to control sample: substantial increase
[5]; vs PEDOT loaded with the dye directly, same charge density
  Overall drug loading increase when SNP used as a reservoir: 16.8 ×

## 6,7-dinitroquinoxaline-2,3-dione [DNQX]
[6]
  GCaMP fluorescence intensity during DNQX release vs prior: significant decrease
[7]
  duration of transient inhibition of sensory evoked neural activity: < 6 s
